From ChEMBL document CHEMBL4808247 (Bioorg Med Chem, 2021)
Values after ≈ are worked out from the molar mass of the structure shown.

Columns and labels:
Enterobacter cloacae [1] = experiment: Antibacterial activity against Enterobacter cloacae IR32 producing class B beta-lactamase, NDM1 assessed as reduction in microbial growth incubated for 16 to 20 hrs by broth microdilution method; type: functional; conditions: time 16-20 hrs
Klebsiella pneumoniae [2] = experiment: Antibacterial activity against Klebsiella pneumoniae JMI:211 producing class A beta-lactamase, KPC-2 assessed as reduction in microbial growth incubated for 16 to 20 hrs by broth microdilution method; type: functional; conditions: time 16-20 hrs
Escherichia coli [3] = experiment: Antibacterial activity against Escherichia coli NIHJ JC-2 assessed as reduction in microbial growth incubated for 16 to 20 hrs by broth microdilution method; type: functional; conditions: time 16-20 hrs
Escherichia coli [4] = experiment: Antibacterial activity against Escherichia coli SR34100 producing class A beta-lactamase, CTX-M-15 assessed as reduction in microbial growth incubated for 16 to 20 hrs by broth microdilution method; type: functional; conditions: time 16-20 hrs
Enterobacter cloacae [5] = experiment: Antibacterial activity against Enterobacter cloacae SR36276 producing class C beta-lactamase, AmpC assessed as reduction in microbial growth incubated for 16 to 20 hrs by broth microdilution method; type: functional; conditions: time 16-20 hrs
Klebsiella pneumoniae [6] = experiment: Antibacterial activity against Klebsiella pneumoniae PLE producing class D beta-lactamase, OXA-48 assessed as reduction in microbial growth incubated for 16 to 20 hrs by broth microdilution method; type: functional; conditions: time 16-20 hrs
Escherichia coli [7] = experiment: Antibacterial activity against Escherichia coli BL21(DE3) transfected with pET9a vector harboring class D beta lactamase, OXA-48 incubated for 16 to 20 hrs by broth microdilution method; type: functional; conditions: time 16-20 hrs
[8] = Ratio of MIC for antibacterial activity against Escherichia coli BL21(DE3) transfected with pET9a vector harboring class C beta lactamase AmpC to MIC for antibacterial activity against Escherichia coli BL21(DE3); type: functional
Escherichia coli [9] = experiment: Antibacterial activity against Escherichia coli BL21(DE3) transfected with pET9a vector harboring class B beta lactamase, NDM-1 incubated for 16 to 20 hrs by broth microdilution method; type: functional; conditions: time 16-20 hrs
Escherichia coli [10] = experiment: Antibacterial activity against Escherichia coli BL21(DE3) transfected with pET9a vector harboring class C beta lactamase, AmpC incubated for 16 to 20 hrs by broth microdilution method; type: functional; conditions: time 16-20 hrs
Escherichia coli [11] = experiment: Antibacterial activity against Escherichia coli BL21(DE3) transfected with pET9a empty vector incubated for 16 to 20 hrs by broth microdilution method; type: functional; conditions: time 16-20 hrs
Escherichia coli [12] = experiment: Antibacterial activity against Escherichia coli BL21(DE3) transfected with pET9a vector harboring class A beta lactamase, CTX-M-15 incubated for 16 to 20 hrs by broth microdilution method; type: functional; conditions: time 16-20 hrs
[13] = Ratio of MIC for antibacterial activity against Escherichia coli BL21(DE3) transfected with pET9a vector harboring class B beta lactamase NDM-1 to MIC for antibacterial activity against Escherichia coli BL21(DE3); type: functional
[14] = Inhibition of CMY-2 in Escherichia coil BL21 assessed as inhibition of nitrocefin hydrolysis measured every 3 mins for 15 mins by UV spectrophotometer analysis; design: species or system Escherichia coli BL21
Enterobacter cloacae [15] = experiment: Antibacterial activity against Enterobacter cloacae 1,261,347 producing class A beta lactamase, PER-2 assessed as reduction in microbial growth incubated for 16 to 20 hrs by broth microdilution method; type: functional; conditions: time 16-20 hrs
Enterobacterales [16] = experiment: Antimicrobial activity against Enterobacterales producing OXA-48 assessed as reduction in microbial growth measured after 16 to 20 hrs by broth microdilution method; type: functional; conditions: time 16-20 hrs
Klebsiella pneumoniae [17] = experiment: Antibacterial activity against Klebsiella pneumonia ATCC 13883 infected in cyclophosphamide-induced neutropenic Jcl:ICR mouse model assessed as log10 reduction in CFU at 10 mg/kg, sc administered at 2, 5 and 8 hrs after infection and measured at 10 hrs after infection; type: functional
Enterobacterales [18] = experiment: Antimicrobial activity against Enterobacterales producing NDM assessed as reduction in microbial growth measured after 16 to 20 hrs by broth microdilution method; type: functional; conditions: time 16-20 hrs
Klebsiella pneumoniae [19] = experiment: Antibacterial activity against Klebsiella pneumonia ATCC 13883 infected in cyclophosphamide-induced neutropenic Jcl:ICR mouse model assessed as log10 reduction in CFU at 3 mg/kg, sc administered at 2, 5 and 8 hrs after infection and measured at 10 hrs after infection; type: functional
Klebsiella pneumoniae [20] = experiment: Antibacterial activity against Klebsiella pneumoniae ATCC13883 assessed as reduction in microbial growth incubated for 16 to 20 hrs by broth microdilution method; type: functional; conditions: time 16-20 hrs
Enterobacterales [21] = experiment: Antimicrobial activity against Enterobacterales producing VIM assessed as reduction in microbial growth measured after 16 to 20 hrs by broth microdilution method; type: functional; conditions: time 16-20 hrs
Enterobacterales [22] = experiment: Antimicrobial activity against Enterobacterales producing KPC assessed as reduction in microbial growth measured after 16 to 20 hrs by broth microdilution method; type: functional; conditions: time 16-20 hrs
Enterobacterales [23] = experiment: Antimicrobial activity against Enterobacterales producing NDM assessed as reduction in microbial growth measured after 16 to 20 hrs in presence of avibactam by broth microdilution method; type: functional; conditions: time 16-20 hrs
Enterobacterales [24] = experiment: Antimicrobial activity against Enterobacterales producing OXA-48 assessed as reduction in microbial growth measured after 16 to 20 hrs in presence of avibactam by broth microdilution method; type: functional; conditions: time 16-20 hrs
Escherichia coli [25] = experiment: Antibacterial activity against Escherichia coli NIHJ JC-2 strain assessed as reduction in microbial growth incubated for 16 to 20 hrs in presence of avibactam by broth microdilution method; type: functional; conditions: time 16-20 hrs
Enterobacterales [26] = experiment: Antimicrobial activity against Enterobacterales producing KPC assessed as reduction in microbial growth measured after 16 to 20 hrs in presence of avibactam by broth microdilution method; type: functional; conditions: time 16-20 hrs
Enterobacterales [27] = experiment: Antimicrobial activity against Enterobacterales producing VIM assessed as reduction in microbial growth measured after 16 to 20 hrs in presence of avibactam by broth microdilution method; type: functional; conditions: time 16-20 hrs

| SMILES | MIC (Enterobacter cloacae [1]) [µg/mL] | MIC (Klebsiella pneumoniae [2]) [µg/mL] | MIC (Escherichia coli [3]) [µg/mL] | MIC (Escherichia coli [4]) [µg/mL] | MIC (Enterobacter cloacae [5]) [µg/mL] | MIC (Klebsiella pneumoniae [6]) [µg/mL] | further results |
| --- | --- | --- | --- | --- | --- | --- | --- |
| Nc1nc(/C(=N/OCC(=O)O)C(=O)N[C@@H]2C(=O)N3[C@@H]2[S@@+]([O-])C[C@@H]2CC(=O)O[C@@]23C(=O)O)ns1 | 2 | 1 | 1 | 8 | 1 | 4 | – |
| Nc1nc(/C(=N/OCC(=O)O)C(=O)N[C@@H]2C(=O)N3[C@@H]2SC[C@@H]2CC(=O)O[C@@]23C(=O)O)c(Cl)s1 | 2 | 4 | 1 | 4 | 8 | 16 | – |
| Nc1nc(/C(=N/OCC(=O)O)C(=O)N[C@@H]2C(=O)N3[C@@H]2SC[C@@H]2CC(=O)O[C@@]23C(=O)O)ns1 | 0.5 | 0.125 | 0.125 | 0.25 | 4 | 1 | – |
| CC(C)(O/N=C(\C(=O)N[C@H]1CON(C2(C(=O)O)CCC(=O)O2)C1=O)c1csc(N)n1)C(=O)O (stereo in doubt) | 1 | – | 0.25 | 4 | > 32 | 1 | MIC (Escherichia coli [7]): 0.063 µg/mL (≈ 0.13 µM); Ratio [8]: 32; MIC (Escherichia coli [9]): 0.25 µg/mL (≈ 0.515 µM); MIC (Escherichia coli [10]): 2 µg/mL (≈ 4.12 µM); MIC (Escherichia coli [11]): 0.063 µg/mL (≈ 0.13 µM); MIC (Escherichia coli [12]): 0.063 µg/mL (≈ 0.13 µM); Ratio [13]: 4 |
| Nc1nc(/C(=N/OCC(=O)O)C(=O)N[C@@H]2C(=O)N3[C@@H]2S(=O)(=O)C[C@@H]2CC(=O)O[C@@]23C(=O)O)cs1 (stereo in doubt) | 0.25 | 0.5 | 0.25 | 1 | 1 | 0.5 | – |
| Nc1nc(/C(=N/OCC(=O)O)C(=O)N[C@@H]2C(=O)N3[C@@H]2[S@+]([O-])C[C@@H]2CC(=O)O[C@@]23C(=O)O)cs1 (stereo in doubt) | 2 | 0.5 | 0.25 | 1 | > 32 | 0.5 | – |
| C[C@@H](O/N=C(\C(=O)N[C@@H]1C(=O)N2[C@@H]1SC[C@@H]1CC(=O)O[C@@]12C(=O)O)c1csc(N)n1)C(=O)O (stereo in doubt) | 0.25 | 0.5 | 0.125 | 0.5 | 16 | 1 | – |
| Nc1nc(/C(=N/OCC(=O)O)C(=O)N[C@@H]2C(=O)N3[C@@H]2[S@@+]([O-])C[C@@H]2CC(=O)O[C@@]23C(=O)O)cs1 (stereo in doubt) | 0.063 | 0.063 | 0.063 | 0.125 | 0.063 | 0.125 | Ki [14]: > 60000 nM; MIC (Enterobacter cloacae [15]): 0.25 µg/mL; MIC50 (Enterobacterales [16]): 0.125 µg/mL; MIC90 (Enterobacterales [16]): 0.25 µg/mL; Activity (Klebsiella pneumoniae [17]): 2.46 log10CFU; MIC50 (Enterobacterales [18]): 0.25 µg/mL; MIC90 (Enterobacterales [18]): 1 µg/mL; Activity (Klebsiella pneumoniae [19]): 2.11 log10CFU; MIC (Klebsiella pneumoniae [20]): 0.125 µg/mL; MIC50 (Enterobacterales [21]): 0.25 µg/mL; MIC90 (Enterobacterales [21]): 1 µg/mL; MIC50 (Enterobacterales [22]): 0.25 µg/mL; MIC90 (Enterobacterales [22]): 0.5 µg/mL |
| C[C@H](O/N=C(\C(=O)N[C@@H]1C(=O)N2[C@@H]1[S@@+]([O-])C[C@@H]1CC(=O)O[C@@]12C(=O)O)c1csc(N)n1)C(=O)O (stereo in doubt) | 0.5 | 0.5 | 0.25 | 1 | 0.25 | 1 | – |
| Nc1nc(/C(=N/OC2(C(=O)O)CC2)C(=O)N[C@@H]2C(=O)N3[C@@H]2[S@@+]([O-])C[C@@H]2CC(=O)O[C@@]23C(=O)O)cs1 (stereo in doubt) | 0.25 | 0.5 | 0.25 | 0.5 | 0.25 | 0.5 | – |
| Nc1nc(/C(=N/OCC(=O)O)C(=O)N[C@@H]2C(=O)N3[C@@H]2SC[C@@H]2CC(=O)O[C@@]23C(=O)O)cs1 (stereo in doubt) | 0.125 | 0.125 | 0.063 | 0.25 | 8 | 1 | Ki [14]: 400 nM; MIC (Klebsiella pneumoniae [20]): 0.125 µg/mL |
| CCO/N=C(\C(=O)N[C@@H]1C(=O)N2[C@@H]1[S@@+]([O-])C[C@@H]1CC(=O)O[C@@]12C(=O)O)c1csc(N)n1 (stereo in doubt) | 0.5 | 0.5 | 0.25 | 0.5 | 1 | 4 | – |
| Nc1nc(/C(=N/OC2(C(=O)O)CC2)C(=O)N[C@@H]2C(=O)N3[C@@H]2SC[C@@H]2CC(=O)O[C@@]23C(=O)O)cs1 (stereo in doubt) | 0.25 | 0.5 | 0.125 | 0.25 | 8 | 1 | – |
| C[C@@H](O/N=C(\C(=O)N[C@@H]1C(=O)N2[C@@H]1[S@@+]([O-])C[C@@H]1CC(=O)O[C@@]12C(=O)O)c1csc(N)n1)C(=O)O (stereo in doubt) | 0.125 | 0.25 | 0.125 | 0.5 | 0.25 | 0.5 | – |
| C[C@H](O/N=C(\C(=O)N[C@@H]1C(=O)N2[C@@H]1SC[C@@H]1CC(=O)O[C@@]12C(=O)O)c1csc(N)n1)C(=O)O (stereo in doubt) | 0.25 | 0.25 | 0.125 | 0.5 | 16 | 0.5 | – |
| C[C@H]1[C@H](NC(=O)/C(=N\OC(C)(C)C(=O)O)c2csc(N)n2)C(=O)N1S(=O)(=O)O (stereo in doubt) [AZTREONAM] | – | – | – | – | – | – | MIC50 (Enterobacterales [23]): 0.25 µg/mL; MIC90 (Enterobacterales [23]): 1 µg/mL; MIC50 (Enterobacterales [24]): 0.063 µg/mL; MIC90 (Enterobacterales [24]): 0.25 µg/mL; MIC (Escherichia coli [25]): 0.125 µg/mL; MIC50 (Enterobacterales [26]): 0.5 µg/mL; MIC90 (Enterobacterales [26]): 1 µg/mL; MIC50 (Enterobacterales [27]): 0.25 µg/mL; MIC90 (Enterobacterales [27]): 2 µg/mL |
